In PMC2747657 (Bioorganic & medicinal chemistry, 2009):
Like-named read-outs stand apart in the source and are kept apart here.

How the values were obtained:
5-HTT = 5-HTT (Rattus norvegicus, UniProt P31652); assay: Inhibition of [3H]paroxetine binding at the 5-HTT; conditions: for Ki: 5-HTT, Ki [3H]paroxetine; for NET/5-HTT Ratio: ratio of Ki values of NET/5-HTT, selectivity for the 5-HTT relative to the NET
NET [1] = molecular target: T1, NET (Rattus norvegicus, UniProt Q63380); assay: Inhibition of [3H]nisoxetine binding at the NET
T1 sequence (Q63380 1-617): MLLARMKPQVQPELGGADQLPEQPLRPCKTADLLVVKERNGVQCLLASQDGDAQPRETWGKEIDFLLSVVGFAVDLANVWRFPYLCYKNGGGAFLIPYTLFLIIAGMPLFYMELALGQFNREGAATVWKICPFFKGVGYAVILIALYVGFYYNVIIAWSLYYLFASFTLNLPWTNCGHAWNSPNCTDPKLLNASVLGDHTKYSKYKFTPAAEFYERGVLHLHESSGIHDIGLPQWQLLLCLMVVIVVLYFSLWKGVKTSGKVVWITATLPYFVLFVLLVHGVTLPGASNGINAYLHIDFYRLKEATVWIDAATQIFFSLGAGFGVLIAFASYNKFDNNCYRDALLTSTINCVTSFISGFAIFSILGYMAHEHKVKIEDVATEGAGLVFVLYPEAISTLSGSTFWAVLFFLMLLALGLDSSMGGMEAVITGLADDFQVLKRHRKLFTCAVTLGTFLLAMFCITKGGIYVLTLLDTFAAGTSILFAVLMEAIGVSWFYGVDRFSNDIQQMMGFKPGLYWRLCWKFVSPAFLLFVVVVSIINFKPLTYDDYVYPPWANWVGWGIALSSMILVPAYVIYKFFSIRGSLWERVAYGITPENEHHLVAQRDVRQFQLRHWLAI

DAT = DAT (Rattus norvegicus, UniProt P23977); assay: Inhibition of [3H]WIN35,428 binding at the DAT
DAT, sequence (P23977 whole entry): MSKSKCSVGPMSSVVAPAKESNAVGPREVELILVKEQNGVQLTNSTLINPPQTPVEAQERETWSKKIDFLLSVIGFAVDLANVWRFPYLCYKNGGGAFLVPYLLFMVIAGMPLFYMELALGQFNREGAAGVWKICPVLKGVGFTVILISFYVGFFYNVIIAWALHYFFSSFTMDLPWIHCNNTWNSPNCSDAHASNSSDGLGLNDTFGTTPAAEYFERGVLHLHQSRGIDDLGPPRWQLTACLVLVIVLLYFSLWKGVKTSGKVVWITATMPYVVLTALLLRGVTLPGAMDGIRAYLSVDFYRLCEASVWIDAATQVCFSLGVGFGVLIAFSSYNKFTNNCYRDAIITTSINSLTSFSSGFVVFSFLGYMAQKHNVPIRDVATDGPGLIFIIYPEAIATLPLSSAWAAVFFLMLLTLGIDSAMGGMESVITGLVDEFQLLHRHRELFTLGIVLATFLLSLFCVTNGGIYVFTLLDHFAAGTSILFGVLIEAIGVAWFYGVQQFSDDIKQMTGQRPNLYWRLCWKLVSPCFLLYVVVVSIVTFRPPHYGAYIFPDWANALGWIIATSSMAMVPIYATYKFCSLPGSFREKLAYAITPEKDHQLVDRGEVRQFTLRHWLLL

NET [2] = molecular target: T1, NET; conditions: read-out: NET, Ki [3H]nisoxetine; inhibition of [3H]nisoxetine binding; cited from earlier work
[3] = relative to N-methyl compound 7a

5-HTT, sequence (P31652 whole entry): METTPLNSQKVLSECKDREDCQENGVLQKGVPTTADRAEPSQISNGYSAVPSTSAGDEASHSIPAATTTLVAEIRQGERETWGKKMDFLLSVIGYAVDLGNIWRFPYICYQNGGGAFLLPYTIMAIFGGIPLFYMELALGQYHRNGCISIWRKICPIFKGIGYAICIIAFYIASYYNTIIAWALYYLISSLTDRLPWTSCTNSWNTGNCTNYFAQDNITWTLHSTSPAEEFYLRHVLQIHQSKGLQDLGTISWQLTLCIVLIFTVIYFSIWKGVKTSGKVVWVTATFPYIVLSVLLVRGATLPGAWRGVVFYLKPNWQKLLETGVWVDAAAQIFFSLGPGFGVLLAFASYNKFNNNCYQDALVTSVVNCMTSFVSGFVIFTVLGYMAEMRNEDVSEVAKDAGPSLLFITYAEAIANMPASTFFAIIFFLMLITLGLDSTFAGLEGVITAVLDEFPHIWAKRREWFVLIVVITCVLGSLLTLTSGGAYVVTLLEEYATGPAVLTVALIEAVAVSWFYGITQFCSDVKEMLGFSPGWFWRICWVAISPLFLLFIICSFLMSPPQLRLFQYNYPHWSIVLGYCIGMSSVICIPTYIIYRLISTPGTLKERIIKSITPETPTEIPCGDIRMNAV

| SMILES | Ki (5-HTT) | Ki (NET [1]) | further results |
| --- | --- | --- | --- |
| COC(=O)[C@H]1[C@@H](c2ccc(SC)cc2)C[C@@H]2CC[C@H]1N2C [7a, 3β-(4-Methylthiophenyl)tropane-2β-carboxylic acid methyl ester] | 220 nM | 220 ± 10 nM | NET/5-HTT Ratio (5-HTT): 314-364 |
| COC(=O)[C@H]1[C@@H](c2ccc([S+](C)[O-])cc2)C[C@@H]2CC[C@H]1N2C (stereo partly drawn) [7g, 3β-(4-methylsulfinylphenyl)tropane-2β-carboxylic acid methyl ester] | 4.3 ± 0.6 nM | 515 ± 60 nM |  |
| COC(=O)[C@H]1[C@@H](c2ccc(SC(C)C)cc2)C[C@@H]2CC[C@H]1N2C [7c, 3β-(4-Isopropylthiophenyl)tropane-2β-carboxylic acid methyl ester] | 129 nM | 129 ± 2 nM |  |
| COC(=O)[C@@H]1C2CCC(C[C@@H]1c1ccc(SC)cc1)N2 (stereo partly drawn) [8a, 3β-(4-Methylthiophenyl)nortropane-2β-carboxylic acid methyl ester] |  |  | fold increase in affinity at the 5-HTT (5-HTT; [3]): approximately 4 fold; fold increase in affinity at the NET (NET [1]; [3]): ~10 fold; fold less affinity at the DAT (DAT; [3]): 3 fold |
| COC(=O)[C@H]1[C@@H](c2ccc([S+](C)[O-])c(Br)c2)C[C@@H]2CC[C@H]1N2C (stereo partly drawn) [7f, 3β-(3-bromo-4-methylsulfinylphenyl)tropane-2β-carboxylic acid methyl ester] |  | 690 ± 80 nM |  |
| COC(=O)[C@H]1[C@@H](c2ccc(SC(F)(F)F)cc2)C[C@@H]2CC[C@H]1N2C [7d, 3β-(4-Trifluoromethylthiophenyl)tropane-2β-carboxylic acid methyl ester] |  | 1900 ± 300 nM |  |
| COC(=O)[C@H]1[C@@H](c2ccc(S(C)(=O)=O)cc2)C[C@@H]2CC[C@H]1N2C [7h, 3β-(4-Methylsulfonylphenyl)tropane-2β-carboxylic acid methyl ester] | 208 ± 45 nM | > 10000 nM | IC50 (DAT): > 10 µM |
| COC(=O)[C@H]1[C@@H](c2ccc(OC)cc2)C[C@@H]2CC[C@H]1N2C [compound 5, 3β-(4-methoxyphenyl)tropane-2β-carboxylic acid methyl ester] |  |  | Ki (NET [2]): 1110 ± 64 nM |
| CCSc1ccc([C@H]2C[C@@H]3CC[C@H]([C@H]2C(=O)OC)N3C)cc1 [7b, 3β-(4-Ethylthiophenyl)tropane-2β-carboxylic acid methyl ester] | 4.5 ± 0.5 nM | 1170 ± 300 nM |  |
| COC(=O)[C@H]1[C@@H](c2ccc(SC)c(Br)c2)C[C@@H]2CC[C@H]1N2C [7e, 3β-(3-Bromo-4-methylthiophenyl)tropane-2β-carboxylic acid methyl ester] |  | 121 ± 12 nM |  |
| C=CCN1C2CCC1[C@@H](C(=O)OC)[C@@H](c1ccc(SC)cc1)C2 (stereo partly drawn) [10a, 3β-(4-Methylthiophenyl)-8-allylnortropane-2β-carboxylic acid methyl ester] |  |  | NET/5-HTT Ratio (5-HTT): 314-364 |
| COC(=O)[C@@H]1C2CCC(C[C@@H]1c1ccc(SC)cc1)N2CCCF (stereo partly drawn) [9a, 3β-(4-Methylthiophenyl)-8-(3-fluoropropyl)nortropane-2β-carboxylic acid methyl ester] |  |  | NET/5-HTT Ratio (5-HTT): 314-364 |
